Data: patent US9834564B2, “Substituted quinolines as PDE-10 inhibitors” (priority 2010, dated 2017)

target: recombinant human PDE-10 enzyme (PDE-10A) (Homo sapiens (Human), UniProt Q9Y233); assay: IMAP PDE Fluorescence Polarization assay, human PDE-10 inhibition (enzyme assay); format: biochemical; conditions: not given
Experimental: In one embodiment, the compounds provided herein were assayed for their ability to inhibit human PDE-10A. In one embodiment, the activities of the compounds were determined using the Molecular Devices IMAP PDE Fluorescence Polarization assay using recombinant human PDE-10 enzyme expressed in a baculoviral system. Briefly, 10 μL of a compound (0.2 nM-20 μM) was added to either a 96-well half area black plate or a 384-well black plate along with 10 μL of Fluorescein-labeled cAMP/cGMP substrate as per manufacturer's instructions and 10 μL of PDE enzyme (activity 0.1 U). Following a 40-minute incubation at 37° C., 60 μL of IMAP binding reagent was added. […] The data was analyzed using Prism Software (GraphPad Inc, San Diego, Calif.).

Chain of recombinant human PDE-10 enzyme (PDE-10A) (Q9Y233 whole entry): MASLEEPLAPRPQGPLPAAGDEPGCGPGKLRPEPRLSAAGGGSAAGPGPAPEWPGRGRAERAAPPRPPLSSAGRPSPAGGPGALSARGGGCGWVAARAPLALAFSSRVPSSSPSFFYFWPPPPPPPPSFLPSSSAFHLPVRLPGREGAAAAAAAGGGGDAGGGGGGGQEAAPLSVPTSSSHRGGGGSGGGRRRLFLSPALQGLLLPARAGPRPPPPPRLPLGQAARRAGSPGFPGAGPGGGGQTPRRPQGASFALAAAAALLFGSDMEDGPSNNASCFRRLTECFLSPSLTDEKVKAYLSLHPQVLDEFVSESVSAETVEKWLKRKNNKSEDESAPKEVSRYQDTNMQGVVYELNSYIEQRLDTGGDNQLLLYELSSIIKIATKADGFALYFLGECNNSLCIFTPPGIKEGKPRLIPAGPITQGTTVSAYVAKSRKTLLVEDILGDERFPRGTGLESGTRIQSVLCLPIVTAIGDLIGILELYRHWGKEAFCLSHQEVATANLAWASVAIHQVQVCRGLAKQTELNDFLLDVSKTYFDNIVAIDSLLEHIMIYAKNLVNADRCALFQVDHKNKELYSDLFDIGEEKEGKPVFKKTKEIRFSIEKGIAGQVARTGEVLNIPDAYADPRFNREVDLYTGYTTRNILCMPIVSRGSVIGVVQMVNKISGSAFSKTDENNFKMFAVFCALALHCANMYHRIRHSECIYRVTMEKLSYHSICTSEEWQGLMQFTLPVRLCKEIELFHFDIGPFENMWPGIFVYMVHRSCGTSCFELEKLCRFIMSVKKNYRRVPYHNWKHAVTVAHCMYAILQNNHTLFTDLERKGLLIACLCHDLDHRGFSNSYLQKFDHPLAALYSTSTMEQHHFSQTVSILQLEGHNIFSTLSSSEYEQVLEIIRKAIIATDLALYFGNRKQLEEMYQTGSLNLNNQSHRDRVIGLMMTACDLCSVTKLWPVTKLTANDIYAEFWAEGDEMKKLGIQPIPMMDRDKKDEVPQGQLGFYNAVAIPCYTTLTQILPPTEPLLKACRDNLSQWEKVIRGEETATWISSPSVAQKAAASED

Structure (SMILES) | IC50 [nM]
Cn1c(/C=C/c2nc(-c3ccccc3)c[nH]2)nc2ccccc2c1=O [Compound 9] | > 10000

same assay, conditions: recombinant human PDE-10, fluorescein-labeled cAMP/cGMP substrate, 40 min at 37° C.

Structure (SMILES) | IC50 [nM]
O=c1[nH]c2ccccc2nc1CCc1nc(-c2ccccc2)c[nH]1 [Compound 2] | < 500
O=c1[nH]c(CCc2nc(-c3ccccc3)c[nH]2)nc2cc3ccccc3cc12 [Compound 6] | > 10000
COc1cc2nc(CCc3nc(-c4ccccc4)c[nH]3)[nH]c(=O)c2cc1OC [Compound 7] | > 10000
Cn1c(CCc2nc(-c3ccccc3)c[nH]2)nc2ccccc2c1=O [Compound 10] | 1000 to 10000
c1ccc(-c2c[nH]c(CCc3ncc4ccccc4n3)n2)cc1 [Compound 13] | < 500
O=c1[nH]c(CCc2cc(-c3ccccc3)n[nH]2)nc2ccccc12 [Compound 14] | 1000 to 10000
Cn1nc(-c2ccccc2)cc1CCc1nc2ccccc2c(=O)[nH]1 [Compound 15] | 1000 to 10000
Cn1cc(-c2ccccc2)nc1CCc1ncc2ccccc2n1 [Compound 18] | < 500
O=c1[nH]c(CCc2nc3ccccc3[nH]2)nc2ccccc12 [Compound 21] | 1000 to 10000
O=c1[nH]c(/C=C/c2nc3ccccc3[nH]2)nc2ccccc12 [Compound 22] | > 10000
Cn1c(/C=C/c2nc3ccccc3c(=O)[nH]2)nc2ccccc21 [Compound 23] | 1000 to 10000
Cn1c(CCc2nc3ccccc3c(=O)[nH]2)nc2ccccc21 [Compound 24] | > 10000
Cn1c(CCc2ccc3ccccc3n2)nc2ccccc21 [Compound 25] | 1000 to 10000
Cn1c(CCc2cnc3ccccc3n2)nc2ccccc21 [Compound 26] | 1000 to 10000
O=c1[nH]c(CCn2cnc(-c3ccccc3)c2)nc2ccccc12 [Compound 27] | 1000 to 10000
C(=C\c1cccs1)/c1nc(-c2ccccc2)c[nH]1 [Compound 28] | > 10000
c1ccc(-c2c[nH]c(CCc3cccs3)n2)cc1 [Compound 29] | > 10000
C(=C\c1nc(-c2ccccc2)c[nH]1)/c1ccccn1 [Compound 32] | > 10000
c1ccc(-c2c[nH]c(CCc3ccccn3)n2)cc1 [Compound 33] | > 10000
c1ccc(-c2c[nH]c(CCc3ccc4ccccc4c3)n2)cc1 [Compound 35] | > 10000
O=c1[nH]c(CCc2ccc(-c3ccccc3)s2)nc2ccccc12 [Compound 37] | > 10000
O=c1[nH]c(/C=C/c2ccc(-c3ccccc3)s2)nc2ccccc12 [Compound 38] | > 10000
Cn1cc(-c2ccncc2)nc1CCc1ccc2ccccc2n1 [Compound 41] | 1000 to 10000

Structure (SMILES) | IC50 [nM]
Cn1cc(-c2cccc(F)c2F)nc1CCc1ccc2ccccc2n1 [Compound 44] | 500 to 1000
Cn1cc(-c2ccncc2)nc1CCc1cnc2ccccc2n1 [Compound 47] | > 10000
O=c1[nH]c(CCc2nc(-c3cc4ccccc4o3)c[nH]2)nc2ccccc12 [Compound 53] | 1000 to 10000
O=c1[nH]c(CCc2nc(-c3ccc(Cl)cc3)c[nH]2)nc2ccccc12 [Compound 54] | 1000 to 10000
O=c1[nH]c(CCc2nc(-c3cccc4ccccc34)c[nH]2)nc2ccccc12 [Compound 55] | 1000 to 10000
O=c1[nH]c(CCc2nc(-c3ccccc3C(F)(F)F)c[nH]2)nc2ccccc12 [Compound 62] | 1000 to 10000
O=c1[nH]c(CCc2nc(-c3ccc(-c4ccccc4)cc3)c[nH]2)nc2ccccc12 [Compound 63] | > 10000
c1coc(-c2c[nH]c(CCc3ccc4ccccc4n3)n2)c1 [Compound 66] | 500 to 1000
c1ccc2nc(CCc3nc(-c4ccncc4)c[nH]3)ccc2c1 [Compound 68] | 1000 to 10000
Fc1cccc(-c2c[nH]c(CCc3ccc4ccccc4n3)n2)c1F [Compound 71] | 500 to 1000
c1ccc2nc(CCc3nc(-c4ccncc4)c[nH]3)cnc2c1 [Compound 74] | 1000 to 10000
c1cncc(-c2c[nH]c(CCc3cnc4ccccc4n3)n2)c1 [Compound 78] | < 500
c1ccc(-c2ncc(CCc3cnc4ccccc4n3)o2)cc1 [Compound 80] | > 10000
c1ccc(-c2cccc(CCc3cnc4ccccc4n3)n2)cc1 [Compound 81] | > 10000
Cn1c(CCc2cnc3ccccc3n2)nc2ccc3ncccc3c21 [Compound 83] | 1000 to 10000
Cn1c(CCc2cnc3ccccc3n2)nc2c3cccnc3ccc21 [Compound 84] | < 500
Cn1c(CCc2ccc3ccccc3n2)nc2c3cccnc3ccc21 [Compound 85] | < 500
c1ccc2nc(CCc3nc4c(ccc5ncccc54)[nH]3)ccc2c1 [Compound 86] | < 500
Cc1ccc(C)c2nc(CCc3nc4c(ccc5ncccc54)[nH]3)cnc12 [Compound 87] | < 500
Cc1ccc(C)c2nc(CCc3nc4c5cccnc5ccc4n3C)cnc12 [Compound 88] | < 500
Cc1ccc(C)c2nc(CCc3nc4ccc5ncccc5c4n3C)cnc12 [Compound 89] | < 500
Cn1c(CCc2ccc3ccccc3n2)nc2c3ccccc3ccc21 [Compound 90] | < 500
Cn1c(CCc2ccc3ccccc3n2)nc2ccc3ccccc3c21 [Compound 91] | 1000 to 10000

Structure (SMILES) | IC50 [nM]
COc1cc2nc(CCc3cnc4ccccc4n3)[nH]c2cc1OC [Compound 96] | 1000 to 10000
c1ccc2nc(CCc3nc4cc5c(cc4[nH]3)OCO5)cnc2c1 [Compound 98] | 1000 to 10000
Oc1cccc2nc(CCc3cnc4ccccc4n3)[nH]c12 [Compound 99] | 500 to 1000
CC(C)(C)c1ccc2nc(CCc3cnc4ccccc4n3)[nH]c2c1 [Compound 100] | 1000 to 10000
Fc1cc2[nH]c(CCc3cnc4ccccc4n3)nc2cc1Cl [Compound 101] | 500 to 1000
FC(F)(F)c1ccc2[nH]c(CCc3cnc4ccccc4n3)nc2c1 [Compound 104] | 1000 to 10000
FC(F)(F)Oc1ccc2[nH]c(CCc3cnc4ccccc4n3)nc2c1 [Compound 105] | 1000 to 10000
Cc1nc2ccccc2nc1CCc1nc2ccccc2[nH]1 [Compound 106] | 500 to 1000
c1ccc2nc(CCc3nc4ccccc4o3)cnc2c1 [Compound 107] | > 10000
c1ccc(-c2csc(CCc3cnc4ccccc4n3)n2)cc1 [Compound 108] | < 500
O=c1[nH]c(CCc2nc3ccccc3o2)nc2ccccc12 [Compound 109] | > 10000
O=c1[nH]c(CCc2nc(-c3ccccc3)c(-c3ccccc3)o2)nc2ccccc12 [Compound 111] | 1000 to 10000
O=c1[nH]c(CCc2nc3ccccc3s2)nc2ccccc12 [Compound 112] | > 10000
O=c1[nH]c(CCc2cc(-c3ccccc3)no2)nc2ccccc12 [Compound 113] | > 10000
c1ccc(-c2nc(CCc3cnc4ccccc4n3)n3c2CCCC3)cc1 [Compound 114] | < 500
O=c1[nH]c(CCc2nc(-c3ccccc3)cs2)nc2ccccc12 [Compound 116] | < 500
c1ccc2nc(CCc3nc4ccccc4s3)cnc2c1 [Compound 117] | 1000 to 10000
c1ccc2nc(CCc3cnc4ccccc4n3)cnc2c1 [Compound 118] | 1000 to 10000
c1ccc2nc(CCc3cn4ccccc4n3)cnc2c1 [Compound 119] | 1000 to 10000
c1ccc(-c2c[nH]c(CNc3cnc4ccccc4n3)n2)cc1 [Compound 121] | 1000 to 10000
c1ccc(-c2c[nH]c(SCc3cnc4ccccc4n3)n2)cc1 [Compound 122] | > 10000
Cc1cnc(C)n2nc(CCc3ccc4ccccc4n3)nc12 [Compound 126, 2-(2-(5,8-Dimethyl-[1,2,4]triazolo[1,5-c]pyrimidin-2-yl)ethyl)quinoline] | < 500
Cc1ncc(C)n2nc(CCc3nc4ccccc4cc3F)nc12 [Compound 127] | < 500

Structure (SMILES) | IC50 [nM]
Cc1ccc2ccc(CCc3nc4c(C)ncc(C)n4n3)nc2c1C [Compound 128] | < 500
Cc1ncc(C)n2nc(CCc3ccc4c(F)ccc(F)c4n3)nc12 [Compound 129] | 500 to 1000
Cc1ncc(C)n2nc(CCc3ccc4ccc5ccccc5c4n3)nc12 [Compound 130] | 500 to 1000
Cc1ncc(C)n2nc(CCc3ccc4ccc(F)c(F)c4n3)nc12 [Compound 131] | < 500
Cc1ncc(C)n2nc(CCc3ccc4ccc(Cl)c(Cl)c4n3)nc12 [Compound 132] | 500 to 1000
Cc1ncc(C)n2nc(CCc3ccc4ccc5cccnc5c4n3)nc12 [Compound 133] | < 500
Cc1ccc2ncc(CCc3nc4c(C)ncc(C)n4n3)nc2c1C [Compound 135] | < 500
Cc1ccc2nc(CCc3nc4c(C)ncc(C)n4n3)cnc2c1C [Compound 136] | < 500
Cc1ncc(C)n2nc(CCc3ccc4ccc5c(c4n3)NCCC5)nc12 [Compound 137] | < 500
Cc1ncc(C)n2nc(CCc3ccc4cccnc4n3)nc12 [Compound 138] | < 500
Cc1ncc(C)n2nc(CCc3ccc4ccncc4n3)nc12 [Compound 139] | 1000 to 10000
Cc1ncc(C)n2nc(CCc3ccc4ncccc4n3)nc12 [Compound 140] | < 500
Cc1ncc(C)n2nc(CCc3ccc4ccc5nccnc5c4n3)nc12 [Compound 141] | < 500
Cn1c(CCc2cnc3c(C(F)(F)F)ccc(C(F)(F)F)c3n2)nc2c3cccnc3ccc21 [Compound 143] | < 500
c1ccc2nc(CCc3nc4c5cccnc5ccn4n3)ccc2c1 [Compound 147] | < 500
Cn1c(CCc2cnc3c(F)ccc(F)c3n2)nc2c3cccnc3ccc21 [Compound 148] | < 500
Cn1cc(-c2ccccc2)nc1CCc1cccc(-n2ccnc2)n1 [Compound 150] | 1000 to 10000
Cn1cc(-c2ccccc2)nc1CCc1cccc(C(N)=O)n1 [Compound 151] | > 10000
Cn1cc(-c2ccccc2)nc1CCc1cccc(-c2ccncc2)n1 [Compound 152] | 1000 to 10000
c1ccc2nc(CCc3nc4c5ncccc5ccn4n3)ccc2c1 [Compound 153] | < 500
